In one data set the target is human MC4R (Homo sapiens, UniProt P32245). In words: Reporter Gene Assay (CHO-6×CRE-luc+ reporter cell lines, luciferase). The data set is classed as cell-based. Conditions: for Emax: 4 h, read-out: % of MSH; for Emax / % of MSH: percentage of the fold stimulation in the NDP-αMSH control (1×10^−7 M NDP-αMSH), CHO-6×CRE-luc+ cells, human MC4R; for EC50: CHO-6×CRE-luc+ reporter cells expressing human MC4R, 4 h at 37° C., luciferase activity. The procedure:
Reporter Gene Assay CHO-6×CRE-luc^+ reporter cell lines expressing human MC1R, MC3R, MC4R, and MC5R (GenBank accession numbers X65634, LO6155, S77415 and U08353) and the CHO host reporter gene cell line were propagated in complete medium in T225 flasks. Forty-eight hours prior to assay, cells were harvested with 2 ml of 0.05% trypsin, washed with complete medium and plated at a concentration of 4000 cells/well in complete medium. Sixteen hours prior to the assay, the medium was removed from the cells and replaced with 90 μl/well of serum-free DMEM/F12. At the time of the assay the compounds were added in a 10 μl volume and plates were incubated for 4 h at 37° C. in a cell culture incubator. The medium was aspirated followed by the addition of 50 μl of a 1:1 mixture of LucLiteTM and dPBS containing 1 mM CaCl2 and 1 mM MgCl2. The plates were then sealed and subjected to dark adaptation at room temperature for 10 min before luciferase activity was quantitated on a TopCountTM microplate scintillation counter (Packard) using 3 s/well count time. The NDP-αMSH and […]-5 concentration-response curve data were expressed as a percentage of the fold stimulation in the NDP-αMSH control for each receptor subtype. The control value is the average of duplicate wells treated with 1×10^-7 M NDP-αMSH.
On the technique in general: In a reporter assay the amount or activity of a reporter protein is the signal.

SMILES strings stand for the structures.

Sequence of human MC4R (P32245 whole entry): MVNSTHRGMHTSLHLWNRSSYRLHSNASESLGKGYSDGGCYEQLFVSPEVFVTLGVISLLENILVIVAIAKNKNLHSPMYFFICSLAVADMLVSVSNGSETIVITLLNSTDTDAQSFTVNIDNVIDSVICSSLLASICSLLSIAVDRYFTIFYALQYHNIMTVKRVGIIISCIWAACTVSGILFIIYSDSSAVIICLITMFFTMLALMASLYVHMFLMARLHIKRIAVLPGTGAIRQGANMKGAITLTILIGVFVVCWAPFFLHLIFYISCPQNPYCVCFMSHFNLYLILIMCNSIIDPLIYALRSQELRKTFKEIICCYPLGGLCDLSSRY

For orientation: melting point means the temperature, or range, at which the solid turns liquid. What is called EC50 is the concentration needed to bring the measured effect to its halfway point. A low value points to greater potency. `COc1cccc2c1CCCCN2C(=O)CN1C(=O)[C@@H](Cc2n[nH]c3ccccc23)C(=O)N(c2ccccc2)c2ccccc21` [Example 5, (3R)-3-(1H-indazol-3-ylmethyl)-1-[2-(6-methoxy-2,3,4,5-tetrahydro-1H-1-benzazepin-1-yl)-2-oxoethyl]-5-phenyl-1H-1,5-benzodiazepine-2,4(3H,5H)-dione] gave a melting point of 186 to 214 °C. Further, on human MC4R, the Emax came out at 44% and a half-maximal response (EC50) required 282 nM.

On to `COc1ccc(N(C(=O)CN2C(=O)C(Cc3n[nH]c4ccccc34)(OC)C(=O)N(c3cccnc3)c3ccccc32)C(C)C)cc1` (racemic) [Example 8, 2-[3-(1H-indazol-3-ylmethyl)-3-methoxy-2,4-dioxo-5-pyridin-3-yl-2,3,4,5-tetrahydro-1H-1,5-benzodiazepin-1-yl]-N-isopropyl-N-(4-methoxyphenyl)acetamide], for which, at human MC4R, the Emax turned out to be 74% and the 50% effective concentration (EC50) was 251 nM.

In the case of `Cc1cc(C)c2c(c1)N(C(=O)CN1C(=O)[C@@H](Cc3n[nH]c4c3CCCC4)C(=O)N(c3ccccc3)c3ccccc31)CCCC2` [Example 6, (3R)-1-[2-(6,8-dimethyl-2,3,4,5-tetrahydro-1H-1-benzazepin-1-yl)-2-oxoethyl]-5-phenyl-3-(4,5,6,7-tetrahydro-1H-indazol-3-ylmethyl)-1H-1,5-benzodiazepine-2,4(3H,5H)-dione], at human MC4R, the Emax came to 35% and the EC50 was 257 nM.

On to `O=C(CN1C(=O)C(Cc2n[nH]c3cc(F)ccc23)C(=O)N(c2ccccc2)c2ccccc21)N1CCCCc2ccccc21` (centres unmarked) [Example 12, 3-[(6-fluoro-1H-indazol-3-yl)methyl]-1-[2-oxo-2-(2,3,4,5-tetrahydro-1H-1-benzazepin-1-yl)ethyl]-5-phenyl-1H-1,5-benzodiazepine-2,4(3H,5H)-dione], for which, on human MC4R, the Emax was 52% and the 50% effective concentration (EC50) was 174 nM.

As for `COc1ccc2c(c1)CCCCN2C(=O)CN1C(=O)C(Cc2n[nH]c3ccccc23)C(=O)N(c2ccccc2)c2ccccc21` (centres unmarked) [Example 2, 3-(1H-indazol-3-ylmethyl)-1-[2-(7-methoxy-2,3,4,5-tetrahydro-1H-1-benzazepin-1-yl)-2-oxoethyl]-5-phenyl-1H-1,5-benzodiazepine-2,4(3H,5H)-dione], the melting point is 215 to 230 °C. In addition, at human MC4R, the Emax came to 42% and the concentration for a half-maximal effect (EC50) was 288 nM.

As for `COc1ccc(N(C(=O)CN2C(=O)C(Cc3n[nH]c4ccccc34)(OC)C(=O)N(c3cccnc3)c3ccccc32)C(C)C)cc1` (single isomer, unassigned) [Example 10, 2-[3-(1H-indazol-3-ylmethyl)-3-methoxy-2,4-dioxo-5-pyridin-3-yl-2,3,4,5-tetrahydro-1H-1,5-benzodiazepin-1-yl]-N-isopropyl-N-(4-methoxyphenyl)acetamide], on human MC4R, the EC50 is 200 nM and the “% of MSH” value is 29%.

Regarding `COC1(Cc2n[nH]c3ccccc23)C(=O)N(CC(=O)N2CCCCc3ccccc32)c2ccccc2N(c2ccccc2)C1=O` (centres unmarked) [Example 11, 3-(1H-indazol-3-ylmethyl)-3-methoxy-1-[2-oxo-2-(2,3,4,5-tetrahydro-1H-1-benzazepin-1-yl)ethyl]-5-phenyl-1H-1,5-benzodiazepine-2,4(3H,5H)-dione], at human MC4R, the Emax turned out to be 59% and the midpoint of the response, the EC50, lay at 112 nM.

On to `O=C(CN1C(=O)C(Cc2n[nH]c3ccccc23)C(=O)N(c2ccccc2)c2ccccc21)N1CCCCc2ccccc21` (racemic) [Example 1, 3-(1H-indazol-3-ylmethyl)-1-[2-oxo-2-(2,3,4,5-tetrahydro-1H-1-benzazepin-1-yl)ethyl]-5-phenyl-1H-1,5-benzodiazepine-2,4(3H,5H)-dione], for which, on human MC4R, the Emax worked out at 60% and it took 309 nM to reach a half-maximal effect (EC50).

Turning to `COc1cccc2c1CCCCN2C(=O)CN1C(=O)C(Cc2n[nH]c3ccccc23)C(=O)N(c2ccccc2)c2ccccc21` (racemic) [Example 4, 3-(1H-indazol-3-ylmethyl)-1-[2-(6-methoxy-2,3,4,5-tetrahydro-1H-1-benzazepin-1-yl)-2-oxoethyl]-5-phenyl-1H-1,5-benzodiazepine-2,4(3H,5H)-dione], on human MC4R, the Emax is 45% and the half-maximal effective concentration (EC50) was 178 nM.

Take `Cc1cc(C)c2c(c1)N(C(=O)CN1C(=O)C(Cc3n[nH]c4ccccc34)C(=O)N(c3ccccc3)c3ccccc31)CCCC2` (racemic) [Example 3, 1-[2-(6,8-dimethyl-2,3,4,5-tetrahydro-1H-1-benzazepin-1-yl)-2-oxoethyl]-3(1H-indazol-3-ylmethyl)-5-phenyl-1H-1,5-benzodiazepine-2,4(3H,5H)-dione]: on human MC4R, the Emax was 47% and the EC50 was 60.3 nM.

For the compound `COc1cccc2c1CCCCN2C(=O)CN1C(=O)[C@@H](Cc2n[nH]c3c2CCCC3)C(=O)N(c2ccccc2)c2ccccc21` [Example 7, (3R)-1-[2-(6-methoxy-2,3,4,5-tetrahydro-1H-1-benzazepin-1-yl)-2-oxoethyl]-5-phenyl-3-(4,5,6,7-tetrahydro-1H-indazol-3-ylmethyl)-1H-1,5-benzodiazepine-2,4(3H,5H)-dione], at human MC4R, the Emax turned out to be 41% and the EC50 is 158 nM.

In the case of `COc1ccc(N(C(=O)CN2C(=O)C(Cc3n[nH]c4ccccc34)(OC)C(=O)N(c3cccnc3)c3ccccc32)C(C)C)cc1` (single isomer, unassigned) [Example 9, 2-[3-(1H-indazol-3-ylmethyl)-3-methoxy-2,4-dioxo-5-pyridin-3-yl-2,3,4,5-tetrahydro-1H-1,5-benzodiazepin-1-yl]-N-isopropyl-N-(4-methoxyphenyl)acetamide], on human MC4R, the concentration for a half-maximal effect (EC50) is 158 nM and the “% of MSH” value amounted to 68%.

(Values after patent US7169773B2, “Compounds” (SmithKline Beecham Corporation, priority 2004, dated 2007).)
